# Read-outs that look alike come from different tables or passages of the source. No end group written: not given here.
# How the values were obtained:
# HIV-1VSV = format: cell-based
# HIV-1BaL = HIV-1BaL replication in primary macrophages, p24 antigen ELISA; format: cell-based
# HDAC = test: Effect of sodium butyrate on ProTα activity in macrophages carrying integrated HIV-1; format: cell-based; conditions: data not presented
# Excerpt: Moreover, both IkBα and ProTα can bind to HDAC and form intracellular complexes with DNA (51, 52). Therefore investigating the functions of these transcriptional factors and studying the competitive binding of HDAC to IkB and/or ProTα and chromatin immunoprecipitation studies may help to further reveal how ProTα inhibits HIV-1 transcription in primary macrophages.
# [1] = system: HIV-1 lab isolates (HIV-1BaL and HIV-1IIIB) or HIV-1 primary isolates; test: HIV-1 replication in primary CD4+ cells (lab and primary isolates); format: cell-based; conditions: primary CD4+ cells; data not presented
# HIV-1JRFL [2] = format: cell-based; conditions: Hos CD4+/CCR5+ cells; data not presented
# HIV-1JRFL [3] = format: cell-based; conditions: HeLa CD4+/CCR5+ cells
# IkBα protein = IkBα protein level in the nucleus of macrophages; format: cell-based; conditions: 1 hr post treatment, data not presented
# PGK promoter = test: Luciferase reporter under PGK promoter (VVPW/LBE) in macrophages; format: cell-based; conditions: 200 ng/ml at 48-72 hr post infection; 24 hr post treatment
# Excerpt: (§1) Inhibition of HIV-1 Gene Transcription by ProTα is not Selective for the HIV-1 LTR Promoter. To determine whether the effect of ProTα on HIV-1 gene transcription is specific for the LTR promoter, the present inventors used two other HIV derived lentiviral vectors carrying luciferase reporter genes under control of PGK (phosphoglycerate kinase-VVPW/LBE) or CMV (cytomegalovirus-VVCW/LBE) promoters (kindly provided by Dr. L. Gusella). Macrophages were infected with HIV-1VSV carrying the luciferase gene, under the control of LTR, PGK or CMV promoters. At 48-72 hr post infection when viral integration is completed, ProTα at 200 ng/ml was introduced.
# STAT2 = STAT2 phosphorylation in treated macrophages; conditions: supernatant 10% by volume, data not presented
# mC2,C3-Ba-L = test: Replication of LTR-mutated mC2,C3-Ba-L in primary macrophages, p24; format: cell-based, HIV-1; conditions: 200 ng/ml, p24 days 6-10, 3 donors
# [4] = system: HIV-1 LTR controlled luciferase reporter gene mRNA; test: Real time RT-PCR of luciferase reporter gene mRNA in HIV-1VSV infected macrophages; format: cell-based; conditions: 200 ng/ml for 24 hr; 72 hr post infection; vs control medium
# Method: (§2) RNA was isolated from macrophages infected with HIVVSV for 72 hr and treated with medium alone or ProTα 24 hr post treatment using Absolutely RNA kit (Stratagene). Real time PCR was done at Mount Sinai Medical Center Core Facility using following primers: […]
# for Luciferase reporter gene: sense-[…] antisense-[…].
# (§3) Each assay was performed in triplicate. Quantification of each PCR product was expressed relative to -actin.
# [5] = system: dual tropic HIV-1 primary isolate; test: Replication of dual tropic HIV-1 primary isolate in primary macrophages, p24; format: cell-based; conditions: 200 ng/ml, p24 day 15
# CMV promoter = test: Luciferase reporter under CMV promoter (VVCW/LBE) in macrophages; format: cell-based; conditions: 200 ng/ml at 48-72 hr post infection; 24 hr post treatment
# Excerpt: as §1
# [6] = system: CCR5 tropic HIV-1 primary isolates; test: Replication of CCR5 HIV-1 primary isolate in primary macrophages, p24; format: cell-based; conditions: 200 ng/ml, p24 day 15
# HIVVSV = format: cell-based, HIV-1; conditions: 200 ng/ml
# HIV-1JRFL [7] = format: cell-based; conditions: primary macrophages
# STAT1 [8] = test: STAT1 phosphorylation western blot, primary macrophages; format: cell-based; conditions: 15 min, ProTα 1 μg/mL or 10% conditioned medium
# Method: (§4) Whole cell extract from macrophages and Hela cells treated with 10% cell conditioned medium from CD8+ cells, ProTα or medium was prepared by adding 1×SDS Sample buffer (100 ul per 6 well plate). For western blot analyses, protein samples were treated with 2.5 M DTT or 2.5% 2-mercaptoethanol and separated by SDS-Page 4-20% Tris-Glycine gradient gels (Novex-Invitrogen Calif.). Following separation by SDS-Page, the gel was blotted onto PVDF membrane (Novex-Invitrogen San-Diego, Carlsbad, Calif.). After blocking with 5% nonfat milk the membrane was incubated with 1/1000 dilution of anti P-STAT-1 (Tyr701) (Cell Signaling Technology) for 24 hr at 4° C. in PBS. The membrane was washed in PBS with 0.05% Tween 20 and treated with 1/2000 diluted anti-rabbit antibodies labeled with horseradish […] (Amersham pharmacia UK). The membrane was washed in PBS with 0.05% tween 20 and Western blot chemiluminescence reagent was added.
# (§5) To establish whether ProTα also induces STAT1 activation in primary macrophages and HeLa-CD4 cells, such cells were briefly (15 min) incubated with ProTα protein at 1 μg/mL or 10% cell conditioned medium after incubation for 2 hr in serum free medium to reduce baseline phosphorylation. A western blot of the electrophoresed total lysate of treated and untreated cells was probed with an antibody specific for STAT1 phosphorylated at tyrosine 701 (FIG. 8).
# IkBα mRNA = IkBα mRNA by real time PCR in macrophages carrying integrated HIV; format: cell-based; conditions: data not presented
# Method: as §2
# for IkB sense-[…] anisense-[…].
# as §3
# type one and/or two IFNs = test: Induction of type one and/or two IFN mRNA in primary macrophages; conditions: 24 hr post treatment, data not presented
# STAT1 [9] = test: STAT1 phosphorylation western blot, HeLa-CD4 cells; format: cell-based; conditions: 15 min, ProTα 1 μg/mL or 10% conditioned medium
# Method: as §4, §5
molecule,measurement,setting,value
"Cc1cn([C@H]2C[C@H](N=[N+]=[N-])[C@@H](CO)O2)c(=O)[nH]c1=O [AZT, azidothymidine, reference compound]",effect on HIV-1 gene expression (luciferase),HIV-1VSV,no effect
"O=C(O)C(=O)CC(=O)c1cccn1Cc1ccc(F)cc1 [L-731 988, reference compound]",suppression of virus replication by integrase inhibitor,"HIV-1BaL; added at 2 hr post infection, replication competent viruses",did not completely suppress virus replication
same,effect on HIV-1 gene expression (luciferase),HIV-1VSV,no effect
CCCC(=O)[O-].[Na+] [sodium butyrate],reduction in ProTα activity,HDAC,70-80%
prothymosin alpha [ProTα],suppression of replication,[1],varying from 30-40% suppression to no suppression
same,anti-HIV-1JRFL activity,HIV-1JRFL [2],"did not, however, exhibit anti-HIV-1JRFL activity"
same,anti-HIV-1JRFL activity,HIV-1JRFL [3],"did not, however, exhibit anti-HIV-1JRFL activity"
same,level of IkBα protein in the nucleus,IkBα protein,increased substantially
same,expression of luciferase reporter gene from PGK promoter,PGK promoter,inhibited expression
same,STAT 2 phosphorylation,STAT2,did not induce STAT 2 phosphorylation
same,suppression of mutated (LTR) virus replication,"mC2,C3-Ba-L",60-80%
same,suppression of LTR controlled luciferase reporter gene mRNA levels,[4],80%
same,replication of dual tropic HIV-1 primary isolate,[5],inhibited replication
same,expression of luciferase reporter gene from CMV promoter,CMV promoter,inhibited expression
same,reduction of viral p24 antigen,"HIV-1BaL; 2 ng/mL rProTα, primary macrophages",greater than 80%
same,inhibition of wild type (LTR) virus,"HIV-1BaL; primary macrophages, 200 ng/ml, p24 days 6-10, 3 donors",90-95%
same,suppression of HIV-1BaL replication as measured by HIV-1 p24 antigen,"HIV-1BaL; primary macrophages, dose response",dosage dependent suppression
same,replication of CCR5 HIV-1 primary isolate,[6],inhibited replication
same,reduction of expression of the reporter gene luciferase,HIVVSV; DCs treated 2 hr post infection,90%
same,inhibition of integrated proviral HIV-1,HIVVSV; DCs treated 72 hr post infection,65-75%
same,inhibition of the luciferase reporter gene of HIV-1JRFL,HIV-1JRFL [7]; dose response,dose dependent inhibition
same,concentration at which anti-HIV-1 activity was exhibited (as low as),HIV-1JRFL [7]; luciferase 72 hr post infection,20 ng/mL
same,effect on HIV-1 gene expression (luciferase),HIV-1VSV,inhibit HIV-1 gene expression
same,expression of luciferase reporter gene from LTR promoter,HIV-1VSV,inhibited expression
same,reduction of HIV-1 gene expression,HIV-1VSV,80%
same,phosphorylation state of STAT1 (Tyr701),STAT1 [8],no effect
same,induction of IkBα mRNA,IkBα mRNA,10 fold
same,induction of type one and/or two IFN mRNA,type one and/or two IFNs,no induction
same,phosphorylation state of STAT1 (Tyr701),STAT1 [9],no effect
"thymosin alpha 1 (Ac-SDAAVDTSSEITTKDLKEKKEVVEEAEN; UniProt P06454 2-29, looked up, fragment) [Tα1, chemically synthesized peptide homologous to the first 28 amino acids of ProTα, reference compound]",activity against the HIVJRFL expressing luciferase reporter gene,HIV-1JRFL [7]; up to 1 μg/mL,no activity

# From patent US7754687B2, “Methods of inhibiting viral infection” (Mount Sinai School of Medicine, priority 2005, dated 2010)
